For 24 compounds, EC50 results are on record in patent publication US11254663B2 (BRISTOL-MYERS SQUIBB COMPANY, priority 2019, dated 2022).

In this assay the target is FXR (Homo sapiens (Human), UniProt Q96RI1). Kind of assay: FXR EC50 (FXR agonist potency reported with each Example). Type of assay: cell-based.

pEC50: −log10 of the molar value.

FXR, sequence (Q96RI1 262-486): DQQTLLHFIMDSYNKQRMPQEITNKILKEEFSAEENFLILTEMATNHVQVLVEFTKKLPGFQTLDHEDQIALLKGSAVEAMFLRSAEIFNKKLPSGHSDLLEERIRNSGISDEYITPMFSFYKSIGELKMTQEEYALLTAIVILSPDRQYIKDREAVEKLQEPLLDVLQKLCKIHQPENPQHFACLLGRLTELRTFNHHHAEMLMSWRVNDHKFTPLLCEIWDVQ

Regarding `O=C(C1CC(F)(F)C1)N(CC12CCC(c3nc(C4CC4)no3)(CC1)OC2)c1cccc(-c2nc(C3CC3)no2)c1` [Example 197, N-((1-(3-cyclopropyl-1,2,4-oxadiazol-5-yl)-2-oxabicyclo[2.2.2]octan-4-yl)methyl)-N-(3-(3-cyclopropyl-1,2,4-oxadiazol-5-yl)phenyl)-3,3-difluorocyclobutane-1-carboxamide], the negative logarithm of the EC50 (pEC50) – broadly, the EC50 on a negative log10 scale, so that one unit is a factor of ten – is 6.02.

With `CC1(c2nc(-c3cccc(N(CC45CCC(c6noc(C7(C)COC7)n6)(CC4)CC5)C(=O)C45CC(F)(C4)C5)c3)no2)CC1` [Example 180, 3-fluoro-N-(3-(5-(1-methylcyclopropyl)-1,2,4-oxadiazol-3-yl)phenyl)-N-((4-(5-(3-methyloxetan-3-yl)-1,2,4-oxadiazol-3-yl)bicyclo[2.2.2]octan-1-yl)methyl) bicyclo[1.1.1]pentane-1-carboxamide], the pEC50 is 7.08.

Compound `CCCc1ncc(-c2cccc(N(CC34CCC(c5cc(C(F)(F)F)ccn5)(CC3)CC4)C(=O)C34CC(F)(C3)C4)c2)o1` [Example 52, 3-fluoro-N-(3-(2-propyloxazol-5-yl)phenyl)-N-((4-(4-(trifluoromethyl)pyridin-2-yl)bicyclo[2.2.2]octan-1-yl)methyl)bicyclo[1.1.1]pentane-1-carboxamide] showed a pEC50 of 6.62.

The compound `CC(C)(C)c1nc(C23CCC(CN(C(=O)C45CC(F)(C4)C5)c4cccc(-c5cnn(S(=O)(=O)C6CC6)c5)c4)(CC2)CC3)no1` [Example 195, N-((4-(5-(tert-butyl)-1,2,4-oxadiazol-3-yl)bicyclo[2.2.2]octan-1-yl)methyl)-N-(3-(1-(cyclopropylsulfonyl)-1H-pyrazol-4-yl)phenyl)-3-fluorobicyclo[1.1.1]pentane-1-carboxamide] had a pEC50 of 7.70.

`O=C(C1CCC(F)(F)C1)N(CC12CCC(c3nc(CC4CC4)no3)(CC1)CC2)c1cccc(-c2nc(CC3CC3)no2)c1` (stereo not drawn) [Example 62, N-((4-(3-(cyclopropylmethyl)-1,2,4-oxadiazol-5-yl)bicyclo[2.2.2]octan-1-yl)methyl)-N-(3-(3-(cyclopropylmethyl)-1,2,4-oxadiazol-5-yl)phenyl)-3,3-difluorocyclopentane-1-carboxamide] had a pEC50 of 6.44.

Regarding `Cc1noc(-c2cccc(N(CC34CCC(c5ccc(C6CC6)cc5)(CC3)CC4)C(=O)C3CC3)c2)n1` [Example 2, N-((4-(4-cyclopropylphenyl)bicyclo[2.2.2]octan-1-yl)methyl)-N-(3-(3-methyl-1,2,4-oxadiazol-5-yl)phenyl)cyclopropanecarboxamide], the pEC50 is 5.51.

Consider `CCOc1ncc(-c2cccc(N(CC34CCC(c5nc(C6CC6)no5)(CC3)CC4)C(=O)C34CC(F)(C3)C4)c2)o1` [Example 7, N-((4-(3-cyclopropyl-1,2,4-oxadiazol-5-yl)bicyclo[2.2.2]octan-1-yl)methyl)-N-(3-(2-ethoxyoxazol-5-yl)phenyl)-3-fluorobicyclo[1.1.1]pentane-1-carboxamide], for which the pEC50 was 7.66.

On to `CCc1noc(-c2cccc(N(CC34CCC(c5nc(C)no5)(CC3)CC4)C(=O)C34CC(F)(C3)C4)c2)n1` [Example 3, N-(3-(3-ethyl-1,2,4-oxadiazol-5-yl)phenyl)-3-fluoro-N-((4-(3-methyl-1,2,4-oxadiazol-5-yl)bicyclo[2.2.2]octan-1-yl)methyl)bicyclo[1.1.1]pentane-1-carboxamide], for which the negative-log EC50 (pEC50) is 6.46.

As to `CCOc1nnc(-c2cccc(N(CC34CCC(c5nc(C6CC6)no5)(CC3)CC4)C(=O)C3CCC(F)(F)C3)c2)o1` (stereo not drawn) [Example 55, N-((4-(3-cyclopropyl-1,2,4-oxadiazol-5-yl)bicyclo[2.2.2]octan-1-yl)methyl)-N-(3-(5-ethoxy-1,3,4-oxadiazol-2-yl)phenyl)-3,3-difluorocyclopentane-1-carboxamide], the pEC50 was 6.90.

As to `Cc1cc(C23CCC(CN(C(=O)C4CCC(F)(F)C4)c4cccc(-c5nc(C6CC6)no5)c4)(CC2)CC3)ccn1` (stereo not drawn) [Example 33, N-(3-(3-cyclopropyl-1,2,4-oxadiazol-5-yl)phenyl)-3,3-difluoro-N-((4-(2-methylpyridin-4-yl)bicyclo[2.2.2]octan-1-yl)methyl)cyclopentane-1-carboxamide], the pEC50 was 5.37.

Take `Cn1nc(C2CC2)cc1C12CCC(CN(C(=O)C3CC(F)(F)C3)c3cccc(-c4nc(C5CC5)no4)c3)(CC1)CC2` [Example 127, N-(3-(3-cyclopropyl-1,2,4-oxadiazol-5-yl)phenyl)-N-((4-(3-cyclopropyl-1-methyl-1H-pyrazol-5-yl)bicyclo[2.2.2]octan-1-yl)methyl)-3,3-difluorocyclobutane-1-carboxamide]: the pEC50 was 6.43.

Compound `CC(C)c1nc(-c2cccc(N(CC34CCC(c5cc(C6CC6)nn5C)(CC3)CC4)C(=O)C34CC(F)(C3)C4)c2)no1` [Example 163, N-((4-(3-cyclopropyl-1-methyl-1H-pyrazol-5-yl)bicyclo[2.2.2]octan-1-yl)methyl)-3-fluoro-N-(3-(5-isopropyl-1,2,4-oxadiazol-3-yl)phenyl)bicyclo[1.1.1]pentane-1-carboxamide] gave a pEC50 of 6.81.

Compound `O=C(C1CC(F)(F)C1)N(CC12CCC(c3nc(CC4CC4)no3)(CC1)CC2)c1cccc(-c2nc(C3CC3)no2)c1` [Example 70, N-(3-(3-cyclopropyl-1,2,4-oxadiazol-5-yl)phenyl)-N-((4-(3-(cyclopropylmethyl)-1,2,4-oxadiazol-5-yl)bicyclo[2.2.2]octan-1-yl)methyl)-3,3-difluorocyclobutane-1-carboxamide] showed a pEC50 of 6.22.

As to `CC(C)(C)c1nc(C23CCC(CN(C(=O)C45CC(F)(C4)C5)c4cc(-c5cn[nH]c5)ccn4)(CC2)CC3)no1` [Example 211, N-(4-(1H-pyrazol-4-yl)pyridin-2-yl)-N-((4-(5-(tert-butyl)-1,2,4-oxadiazol-3-yl)bicyclo[2.2.2]octan-1-yl)methyl)-3-fluorobicyclo[1.1.1]pentane-1-carboxamide], the pEC50 was 7.77.

As for `CC(C)(O)c1coc(-c2cccc(N(CC34CCC(c5nc(C6CC6)no5)(CC3)CC4)C(=O)C3CC(F)(F)C3)c2)n1` [Example 16, N-((4-(3-cyclopropyl-1,2,4-oxadiazol-5-yl)bicyclo[2.2.2]octan-1-yl)methyl)-3,3-difluoro-N-(3-(4-(2-hydroxypropan-2-yl)oxazol-2-yl)phenyl)cyclobutane-1-carboxamide], the pEC50 is 6.50.

`CC(C)c1nc(-c2cccc(N(CC34CCC(c5ccc(C(F)(F)F)cn5)(CC3)CC4)C(=O)C34CC(F)(C3)C4)c2)no1` [Example 187, 3-fluoro-N-(3-(5-isopropyl-1,2,4-oxadiazol-3-yl)phenyl)-N-((4-(5-(trifluoromethyl)pyridin-2-yl)bicyclo[2.2.2]octan-1-yl)methyl)bicyclo[1.1.1]pentane-1-carboxamide] had a pEC50 of 6.22.

With `O=C(N(CC12CCC(c3nc(C4CC4)no3)(CC1)CC2)c1cccc(-c2noc(C(F)(F)F)n2)c1)C12CC(F)(C1)C2` [Example 108, N-((4-(3-cyclopropyl-1,2,4-oxadiazol-5-yl)bicyclo[2.2.2]octan-1-yl)methyl)-3-fluoro-N-(3-(5-(trifluoromethyl)-1,2,4-oxadiazol-3-yl)phenyl)bicyclo[1.1.1]pentane-1-carboxamide], the pEC50 is 6.84.

On to `O=C(N(CC12CCC(c3cnc(C(F)(F)F)nc3)(CC1)OC2)c1cccc(-c2noc(C(F)F)n2)c1)C12CC(F)(C1)C2` [Example 182, N-(3-(5-(difluoromethyl)-1,2,4-oxadiazol-3-yl)phenyl)-3-fluoro-N-((1-(2-(trifluoromethyl)pyrimidin-5-yl)-2-oxabicyclo[2.2.2]octan-4-yl)methyl) bicyclo[1.1.1]pentane-1-carboxamide], for which the negative logarithm of the EC50 (pEC50) was 5.70.

For `CC1(c2nc(C34CCC(CN(C(=O)C56CC(F)(C5)C6)c5cccc(-c6nc(C7CC7)no6)c5)(CC3)CC4)no2)COC1` [Example 122, N-(3-(3-cyclopropyl-1,2,4-oxadiazol-5-yl)phenyl)-3-fluoro-N-((4-(5-(3-methyloxetan-3-yl)-1,2,4-oxadiazol-3-yl)bicyclo[2.2.2]octan-1-yl)methyl)bicyclo[1.1.1]pentane-1-carboxamide], the negative-log EC50 (pEC50) is 7.55.

`Cn1nc(C2CC2)cc1C12CCC(CN(C(=O)C34CC(F)(C3)C4)c3cccc(-c4nc(C5CC5)no4)c3)(CC1)CC2` [Example 126, N-(3-(3-cyclopropyl-1,2,4-oxadiazol-5-yl)phenyl)-N-((4-(3-cyclopropyl-1-methyl-1H-pyrazol-5-yl)bicyclo[2.2.2]octan-1-yl)methyl)-3-fluorobicyclo[1.1.1]pentane-1-carboxamide] had a pEC50 of 7.06.

Turning to `CC(C)(C)c1noc(C23CCC(CN(C(=O)C45CC(F)(C4)C5)c4cccc(-c5cnn(S(=O)(=O)C6CC6)c5)c4)(CC2)OC3)n1` [Example 208, N-((4-(3-(tert-butyl)-1,2,4-oxadiazol-5-yl)-2-oxabicyclo[2.2.2]octan-1-yl)methyl)-N-(3-(1-(cyclopropylsulfonyl)-1H-pyrazol-4-yl)phenyl)-3-fluorobicyclo[1.1.1]pentane-1-carboxamide], the pEC50 was 6.21.

Take `CCc1noc(-c2cccc(N(CC34CCC(c5ccc(C(C)(C)C#N)cc5)(CC3)OC4)C(=O)C34CC(F)(C3)C4)c2)n1` [Example 47, N-((1-(4-(2-cyanopropan-2-yl)phenyl)-2-oxabicyclo[2.2.2]octan-4-yl)methyl)-N-(3-(3-ethyl-1,2,4-oxadiazol-5-yl)phenyl)-3-fluorobicyclo[1.1.1]pentane-1-carboxamide]: the pEC50 is 6.52.

`COc1cccc(-c2cccc(N(CC34CCC(c5nc(C)no5)(CC3)CC4)C(=O)C34CC(F)(C3)C4)c2)c1` [Example 221, 3-fluoro-N-(3′-methoxy-[1,1′-biphenyl]-3-yl)-N-((4-(3-methyl-1,2,4-oxadiazol-5-yl)bicyclo[2.2.2]octan-1-yl)methyl)bicyclo[1.1.1]pentane-1-carboxamide]: the pEC50 was 6.30.

As for `O=C(N(CC12CCC(c3nc(C4CC4)no3)(CC1)CC2)c1cccc(-n2cc(C3CC3)nn2)c1)C12CC(F)(C1)C2` [Example 219, N-((4-(3-cyclopropyl-1,2,4-oxadiazol-5-yl)bicyclo[2.2.2]octan-1-yl)methyl)-N-(3-(4-cyclopropyl-1H-1,2,3-triazol-1-yl)phenyl)-3-fluorobicyclo[1.1.1]pentane-1-carboxamide], the pEC50 was 7.01.
